# Measured values reported in ChEMBL document CHEMBL1158807, “Azadirachtin derivatives from seed kernels of Azadirachta excelsa” (J Nat Prod, 2005).
# Columns and labels:
# Format in all cases: organism-based
# Conditions in all cases: in vivo
# Plutella xylostella [1] = assay: Toxicity in Plutella xylostella larvae after 48 hrs
# Plutella xylostella [2] = assay: Toxicity in Plutella xylostella larvae after 96 hrs
# Plutella xylostella [3] = assay: Toxicity in Plutella xylostella larvae after 72 hrs
# Plutella xylostella [4] = assay: Toxicity in Plutella xylostella larvae after 24 hrs
SMILES,LD50 (Plutella xylostella [1]),LD50 (Plutella xylostella [2]),LD50 (Plutella xylostella [3]),LD50 (Plutella xylostella [4])
C/C=C(\C)C(=O)O[C@H]1C[C@@H](OC(C)=O)[C@@]2(C(=O)OC)CO[C@H]3[C@@H](O)[C@@](C)([C@]45O[C@@]4(C)[C@H]4C[C@@H]5O[C@@H]5OC=C[C@@]54O)[C@@H]4[C@@H](C(=O)OC)OC[C@@]14[C@@H]32 [AZADIRACHTIN M],4.84 µg/g,1.3 µg/g,4.23 µg/g,8.46 µg/g
COC(=O)[C@@]12CO[C@H]3[C@@H](O)[C@@](C)([C@]45O[C@@]4(C)[C@H]4C[C@@H]5O[C@@H]5OC=C[C@@]54O)[C@@H]4[C@@H](O)OC[C@]4([C@@H](OC(=O)CC(C)C)C[C@H]1OC(C)=O)[C@@H]32 [AZADIRACHTIN P],1.73 µg/g,0.79 µg/g,1.19 µg/g,2.19 µg/g
COC(=O)[C@H]1OC[C@@]23[C@@H](OC(C)=O)C[C@@H](OC(C)=O)[C@@]4(C(=O)OC)CO[C@@H]([C@@H](O)[C@@](C)([C@]56O[C@@]5(C)[C@H]5C[C@@H]6O[C@@H]6OC=C[C@@]65O)[C@H]12)[C@@H]43 [AZADIRACHTIN Q],1.89 µg/g,1.1 µg/g,1.4 µg/g,5.95 µg/g
C/C=C(\C)C(=O)O[C@@H]1C[C@H](O)[C@]23CO[C@H](C(=O)OC)[C@H]2[C@](C)([C@]24O[C@@]2(C)[C@H]2C[C@@H]4O[C@@H]4OC=C[C@@]42O)[C@H](O)[C@@H]2OC[C@@]1(C(=O)OC)[C@H]23 [AZADIRACHTIN B],2.26 µg/g,1.06 µg/g,1.56 µg/g,4.85 µg/g
C/C=C(\C)C(=O)O[C@H]1C[C@@H](OC(C)=O)[C@@]2(C(=O)OC)CO[C@H]3[C@@H](O)[C@@](C)([C@]45O[C@@]4(C)[C@@H]4C[C@H]5O[C@@H]5OC=C[C@@]54O)[C@H]4[C@]1(CO[C@]4(O)C(=O)OC)[C@@H]32 [AZADIRACHTIN A],4.12 µg/g,0.87 µg/g,1.28 µg/g,7.04 µg/g
C/C=C(\C)C(=O)O[C@H]1C[C@@H](OC(C)=O)[C@@]2(C(=O)OC)CO[C@H]3[C@@H](O)[C@@](C)([C@]45O[C@@]4(C)[C@H]4C[C@@H]5O[C@@H]5OC=C[C@@]54O)[C@@H]4[C@@H](O)OC[C@@]14[C@@H]32,4.2 µg/g,0.75 µg/g,1.38 µg/g,5.75 µg/g
COC(=O)[C@H]1OC[C@@]23[C@@H](OC(=O)CC(C)C)C[C@@H](OC(C)=O)[C@@]4(C(=O)OC)CO[C@@H]([C@@H](O)[C@@](C)([C@]56O[C@@]5(C)[C@H]5C[C@@H]6O[C@@H]6OC=C[C@@]65O)[C@H]12)[C@@H]43 [AZADIRACHTIN O],1.92 µg/g,0.79 µg/g,1.19 µg/g,3.92 µg/g
C/C=C(\C)C(=O)O[C@H]1C[C@@H](OC(C)=O)[C@@]2(C(=O)OC)CO[C@H]3[C@@H](O)[C@@](C)([C@]45O[C@@]4(C)[C@H]4C[C@@H]5O[C@@H]5OC=C[C@@]54O)[C@@H]4[C@@H](OC(C)=O)OC[C@@]14[C@@H]32 [AZADIRACHTIN L],7.89 µg/g,1.92 µg/g,5.39 µg/g,10.27 µg/g
COC(=O)[C@H]1OC[C@]23[C@@H]1[C@](C)([C@]14O[C@@]1(C)[C@H]1C[C@@H]4O[C@@H]4OC=C[C@@]41O)[C@H](O)[C@@H]1OC[C@](C(=O)OC)([C@H](O)C[C@@H]2O)[C@H]13 [AZADIRACHTOL],3.28 µg/g,1.78 µg/g,2.35 µg/g,4.88 µg/g
